In paper PMC4501687, “Design of a Selective Substrate and Activity Based Probe for Human Neutrophil Serine Protease 4” (PLoS ONE, 2015):
“And” between values parts separate entries of the source, which are not always exact repeats. Equal values may be shown once. Read-outs that look alike come from different tables or passages of the source. * marks the point of attachment. ACC = NC(=O)Cc1cc(=O)oc2cc(N*)ccc12; CH2Cl = ClC*

Experiments:
NSP4 [1] = molecular target: T1, NSP4 (Homo sapiens, UniProt Q6UWY2); experiment: Fluorogenic substrate hydrolysis kinetics with NSP4; format: biochemical
T1 construct: made in house
T1 sequence (Q6UWY2 32-283): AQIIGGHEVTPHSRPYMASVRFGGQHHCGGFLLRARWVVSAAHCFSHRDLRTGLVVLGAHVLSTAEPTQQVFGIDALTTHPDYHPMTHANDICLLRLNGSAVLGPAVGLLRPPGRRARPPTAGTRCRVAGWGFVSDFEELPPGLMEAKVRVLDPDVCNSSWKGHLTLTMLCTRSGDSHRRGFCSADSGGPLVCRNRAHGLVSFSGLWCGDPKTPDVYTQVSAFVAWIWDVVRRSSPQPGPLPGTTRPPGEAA
Protocol: (§1) Kinetic parameters of selected substrates were determined in 50 mM Hepes, 0.1 M NaCl, 0.1%TRITON-X100, pH 7.45 assay buffer on 96 wells Corning plates. Measurements were performed for a minimum of 20 minutes. The excitation wavelength was 355 nm, and the emission wavelength was 460 nm, with a cutoff of 455 nm. Human NE and CatG were purchased from Biocentrum, Krakow, Poland and PR3 from Athens Research Technology, Athens, Georgia, USA. Recombinant human NSP4 was expressed and purified as previously described.
To 20μl of substrates dissolved in assay buffer at known concentration ranges (PK421 and PK431–320–1μM, PK417 and PK418–460–27μM), 80μl of NSP4 (2.9nM), preincubated for 20 minutes at 37°C in buffer, was added. Km, kcat and kcat/Km parameters/constants were calculated using GraphPad Prism and Excel software. Each experiment was repeated three times, and the results are presented as an average +/- S.D.

PR3 = molecular target: T2, PR3 (Homo sapiens, UniProt P24158); experiment: Fluorogenic substrate hydrolysis kinetics with PR3; format: biochemical
T2 construct: purchased Athens Research Technology, Athens, Georgia, USA
T2 sequence (P24158 28-256): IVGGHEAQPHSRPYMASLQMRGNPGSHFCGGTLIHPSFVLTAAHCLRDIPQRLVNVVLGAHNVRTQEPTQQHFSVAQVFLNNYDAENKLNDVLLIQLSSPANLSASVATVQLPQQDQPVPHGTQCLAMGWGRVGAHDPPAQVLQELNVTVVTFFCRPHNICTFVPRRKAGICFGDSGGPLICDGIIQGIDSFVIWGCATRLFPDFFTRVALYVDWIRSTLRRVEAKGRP
Protocol: as §1
(§2) In addition to NSP4, neutrophils contain three other structurally-related serine proteases NE, PR3 and CatG [1] that are also stored in azurophilic granules. To estimate the degree of eventual cross reactivity of the optimal substrate with these three serine proteases, we measured kinetic parameters for each enzyme on PK421. […] In the case of CatG we were unable to saturate the enzyme and therefore could not calculate the individual values of kcat and Km.

NE = molecular target: T3, NE (Homo sapiens, UniProt P08246); experiment: Fluorogenic substrate hydrolysis kinetics with NE; format: biochemical
T3 construct: purchased Biocentrum, Krakow, Poland
T3 sequence (P08246 30-267): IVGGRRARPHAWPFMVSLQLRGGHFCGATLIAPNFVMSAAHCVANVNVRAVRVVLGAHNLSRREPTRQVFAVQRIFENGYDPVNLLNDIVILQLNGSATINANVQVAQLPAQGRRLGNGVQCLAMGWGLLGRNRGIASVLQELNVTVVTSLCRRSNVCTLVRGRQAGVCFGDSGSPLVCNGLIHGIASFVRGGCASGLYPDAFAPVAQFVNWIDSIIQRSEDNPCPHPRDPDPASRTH
Protocol: as §1, §2

NSP4 [2] = molecular target: T1, NSP4; experiment: SDS-PAGE / streptavidin blot labeling of purified NSP4 by probe; format: binding; details: 100 nM NSP4 preincubated with inhibitor 30 min 37°C, then PK401 up to 2000 nM for 20 min
Protocol: 100nM of NSP4 was incubated with competing inhibitor—Ac-IVPR-CMK for 30 minutes at 37°C and then treated with different concentrations of probe—PK401 (2000nM and 1000nM) for 20 minutes at 37°C. Separately, 100nM of NSP4 was incubated with five different concentrations of probe- 2000nM, 1000nM, 100nM, 10nM, and 1 nM for 20 minutes in 37°C. As a control 100nM PK401 was incubated with assay buffer.
Samples were denatured and run in 4–12% SDS PAGE following transfer to nitrocellulose membrane. The membrane was blocked with 1.5% BSA in TBST overnight at 4°C and treated with IRDye800CW Streptavidin (dilution 1:10000 with 1.5% BSA in TBST) for 45 minutes. Then enzyme was visualized using a Li-cor fluorescence imager and Odyssey Molecular Modeling Software.
SDS-page and Western Blot […]
A standard SDS broad spectrum marker (Biorad) was used (Fig. 4A, lane 1). […]
minutes in 37° C (Fig. 4, lanes 4, 5, 6, 7, 8). […] Then enzyme was visualized using a Li-cor fluorescence imager and Odyssey Molecular Modeling Software. […]
The membrane was blocked with 1.5% BSA in TBST overnight at 4° C and treated with IRDye800CW Streptavidin (dilution 1:10000 with 1,5% BSA in TBST) for 45 minutes. Then PK401 was visualized using a Li-cor fluorescence imager and Odyssey Molecular Modeling Software.

[3] = Table 1, NSP4 2.9 nM preincubated 20 min 37°C, 50 mM Hepes, 0.1 M NaCl, 0.1% TRITON-X100, pH 7.45, ACC fluorescence ex 355/em 460 nm, average ± S.D., minimum of 2 experiments, SD, read-out: Km
[4] = Table 1, NSP4 2.9 nM, Hepes buffer pH 7.45, 37°C, ACC fluorescence, average ± S.D., minimum of 2 experiments, SD
[5] = Table 1 and text, NSP4 2.9 nM, Hepes buffer pH 7.45, 37°C, ACC fluorescence, average ± S.D., minimum of 2 experiments
[6] = Table 2, hydrolysis by NSP4, Hepes buffer pH 7.45

Row | Substance | Km (NSP4 [1]; [3]) [µM] | kcat (NSP4 [1]; [4]) | kcat/Km (NSP4 [1]; [5]) | also measured
1 | Ac-RVPR-{ACC} (SMILES CC(=O)N[C@@H](CCCNC(=N)N)C(=O)N[C@H](C(=O)N1CCC[C@H]1C(=O)N[C@@H](CCCNC(=N)N)C(=O)Nc1ccc2c(CC(N)=O)cc(=O)oc2c1)C(C)C) [PK418, fluorogenic NSP4 substrate of natural amino acids] | 67 ± 10 | 0.06 ± 0.003 x 10^−3 s^-1 | 960 ± 190 M⁻¹ s⁻¹ | 
2 | Ac-Glu(OBzl)-Lys(Ac)-hPro(OBzl)-Abu-ACC [assay substrate for PR3, reference compound] |  |  |  | Km (PR3; Table 3, assay substrate for PR3, read-out: Km of the substrate used for analysis): 13.7 ± 0.67 µM
3 | Ac-hCha-Phe(guan)-Oic-Arg-ACC [PK421, optimal fluorogenic NSP4 substrate with unnatural amino acids] | 61 ± 9.1 | 2.0 ± 0.54 s⁻¹ | 32000 M⁻¹ s⁻¹ and 32000.0 ± 4500 M⁻¹ s⁻¹ | Increase of kcat/Km relative to PK431 (Pro to Oic at P2) (NSP4 [1]; NSP4, PK421 versus PK431): 39%; Fold more efficiently cleaved by NSP4 than PK417 (kcat/Km ratio) (NSP4 [1]; NSP4, versus best substrate of only natural amino acids): around 15 times; kcat (NSP4 [1]; [6]): 2.0 ± 0.54 s⁻¹; kcat/Km (NSP4 [1]; [6]): 32000 ± 4500 M⁻¹ s⁻¹; Km (NSP4 [1]; Table 2, hydrolysis by NSP4, Hepes buffer pH 7.45, read-out: Km): 61 ± 9.1 µM; kcat/Km (NE; Table 2, hydrolysis by NE, NA = no activity detected): Lack of measurable activity; kcat/Km (PR3; Table 2, hydrolysis by PR3, NA = no activity detected): Lack of measurable activity
4 | Ac-Nle(OBzl)-Met(O)2-Oic-Abu-ACC [assay substrate for NE, reference compound] |  |  |  | Km (NE; Table 3, assay substrate for NE, read-out: Km of the substrate used for analysis): 0.28 ± 0.08 µM
5 | Ac-IVPR-CH2Cl [reference compound] |  |  |  | Effect of NSP4 active site blocking on PK401 binding (NSP4 [2]): prevented binding
6 | Ac-IVPR-{ACC} (SMILES CC[C@H](C)[C@H](NC(C)=O)C(=O)N[C@H](C(=O)N1CCC[C@H]1C(=O)N[C@@H](CCCNC(=N)N)C(=O)Nc1ccc2c(CC(N)=O)cc(=O)oc2c1)C(C)C) [PK417, fluorogenic NSP4 substrate of natural amino acids] | 96 ± 16 | 0.2 ± 0.02 s⁻¹ | 2100 M⁻¹ s⁻¹ and 2100 ± 300 M⁻¹ s⁻¹ | 
7 | Ac-hCha-Phe(guan)-Pro-Arg-ACC [PK431, fluorogenic NSP4 substrate with unnatural amino acids] | 53 ± 0.8 | 1.2 ± 0.017 s⁻¹ | 23000 ± 11 M⁻¹ s⁻¹ | Km (NSP4 [1]; Table 3, assay substrate for NSP4, read-out: Km of the substrate used for analysis): 53 ± 0.8 µM
